From patent US20130053385A1, “METHOD OF COMBATING AND CONTROLLING PESTS” (SYNGENTA LIMITED, priority 2009, published 2013)

test system: Myzus persicae (Green Peach Aphid); experiment: Activity against Myzus persicae, mixed population, feeding/residual contact activity, preventive (sunflower leaf discs, Example B1); assay type: in vivo; conditions: foliar, 144 h, 400 ppm, sprayed sunflower leaf discs, 6 days incubation, mixed-age aphids, read-out: activity (mortality)
Method: Activity Against Myzus persicae (Green Peach Aphid)
(§1) (mixed population, feeding/residual contact activity, preventive)
Sunflower leaf discs are placed on agar in a 24-well microtiter plate and sprayed with test solutions. After drying, the leaf discs are infested with an aphid population of mixed ages. After an incubation period of 6 days, samples are checked for mortality and special effects (e.g. phytotoxicity).

SMILES | mortality at 400 ppm [%]
Cc1cc(C)c(C2=C(OC(=O)C3CC3)CC(CC3CCOC3)C2=O)c(C)c1 (stereo not drawn) [Compound P14] | > 80
CCCCCCC(=O)OC1=C(c2c(C)cc(C)cc2C)C(=O)C(CC2CCOC2)C1 (stereo not drawn) [Compound P16] | > 80
Cc1cc(C)c(C2=C(OC(=O)C3CC3)CC(CC3CCN(C(=O)C4CC4)C3)C2=O)c(C)c1 (stereo not drawn) [Compound P57] | > 80
Cc1cc(Br)cc(C)c1C1=C(OC(=O)C(C)(C)C)CC(CC2CCOCC2)C1=O (stereo not drawn) [Compound P66] | > 80
CC(=O)N1CCC(/C=C2\CC(=O)C(c3c(C)cc(C)cc3C)C2=O)CC1 (stereo not drawn) [Compound T15] | > 80
CC(=O)N1CCC(CC2CC(=O)C(c3c(C)cc(C)cc3C)C2=O)CC1 (stereo not drawn) [Compound T24] | > 80
Cc1cc(C)c(C2C(=O)C(C)C(CC3CCOC3)C2=O)c(C)c1 (stereo not drawn) [Compound T29] | > 80
Cc1cc(C)c(C2C(=O)C/C(=C\C3CCOC(C)(C)C3)C2=O)c(C)c1 (stereo not drawn) [Compound T37] | > 80
Cc1cc(Br)cc(C)c1C1C(=O)C/C(=C\C2CCOCC2)C1=O (stereo not drawn) [Compound T45] | > 80
CCc1cc(C)cc(C)c1C1C(=O)C/C(=C\C2CCOC2)C1=O (stereo not drawn) [Compound T59] | > 80
CCS(=O)(=O)N1CCC(CC2CC(=O)C(c3c(C)cc(C)cc3C)C2=O)CC1 (stereo not drawn) [Compound T95] | > 80
Cc1cc(-c2ccc(Cl)cc2F)cc(C)c1C1C(=O)C/C(=C\C2CCOCC2)C1=O (stereo not drawn) [Compound T132] | > 80
Cc1cc(Br)cc(C)c1C1C(=O)CC(CC2CCOCC2)C1=O (stereo not drawn) [Compound T138] | > 80
Cc1cc(C)c(C2C(=O)CC(Cc3ccccc3)(CC3CCOC3)C2=O)c(C)c1 (stereo not drawn) [Compound T150] | > 80
Cc1cc(Cl)cc(C)c1C1C(=O)CC(CC2CCOCC2)C1=O (stereo not drawn) [Compound T169] | > 80
Cc1cc(F)cc(C)c1C1C(=O)CC(CC2CCOC2)C1=O (stereo not drawn) [Compound T171] | > 80

same assay, conditions: foliar, 144 h, read-out: activity (mortality)

SMILES | mortality at 400 ppm [%]
Cc1cc(C)c(C2C(=O)CC(CC3CCN(C(=O)Oc4ccccc4)CC3)C2=O)c(C)c1 (stereo not drawn) [Compound T68] | > 80
COC(=O)N1CCC(CC2CC(=O)C(c3c(C)cc(C)cc3C)C2=O)CC1 (stereo not drawn) [Compound T98] | > 80

test system: Tetranychus urticae (Two-Spotted Spider Mite); experiment: Activity against Tetranychus urticae, mixed population, feeding/residual contact activity, preventive (bean leaf discs, Example B4); assay type: in vivo; conditions: foliar, 192 h, 400 ppm, sprayed bean leaf discs, 8 days, mixed-age mites, read-out: activity (egg, larval and adult mortality)
Text: Activity Against Tetranychus urticae (Two-Spotted Spider Mite)
as §1
Bean leaf discs on agar in 24-well microtiter plates are sprayed with test solutions. After drying, the leaf discs are infested with mite populations of mixed ages. 8 days later, discs are checked for egg mortality, larval mortality, and adult mortality.

SMILES | mortality at 400 ppm [%]
Cc1cc(C)c(C2=C(OS(=O)(=O)C3CC3)CC(CC3CCOC3)C2=O)c(C)c1 (stereo not drawn) [Compound P28] | > 80
Cc1cc(C)c(C2=C(OC(=O)C(C)(C)C)CC(CCC3CCOCC3)C2=O)c(C)c1 (stereo not drawn) [Compound P34] | > 80
Cc1cc(C)c(C2=C(OC(=O)C(C)(C)C)CC(CC3COCCO3)C2=O)c(C)c1 (stereo not drawn) [Compound P49] | > 80
CON1CCC(CC2CC(OC(=O)C(C)(C)C)=C(c3c(C)cc(C)cc3C)C2=O)CC1 (stereo not drawn) [Compound P51] | > 80
Cc1cc(C)c(C2=C(OC(=O)C3CC3)CC(CC3CCN(C(=O)C4CC4)C3)C2=O)c(C)c1 (stereo not drawn) [Compound P57] | > 80
Cc1cc(C)c(C2=C(OC(=O)C(C)C)CC(CC3CCN(C(=O)C(C)C)C3)C2=O)c(C)c1 (stereo not drawn) [Compound P58] | > 80
Cc1cc(C)c(C2=C(OC(=O)C(C)(C)C)CC(CC3CCN(C(=O)C(C)(C)C)C3)C2=O)c(C)c1 (stereo not drawn) [Compound P59] | > 80
Cc1cc(C)c(C2=C(OC(=O)c3ccco3)CC(CC3CCN(C(=O)c4ccco4)C3)C2=O)c(C)c1 (stereo not drawn) [Compound P62] | > 80
Cc1cc(C)c(C2=C(OC(=O)c3c(C)noc3C)CC(CC3CCN(C(=O)c4c(C)noc4C)C3)C2=O)c(C)c1 (stereo not drawn) [Compound P63] | > 80
CCC(=O)OC1=C(c2c(C)cc(C)cc2C)C(=O)C(CC2CCN(C(=O)CC)CC2)C1 (stereo not drawn) [Compound P65] | > 80
Cc1cc(C)c(C2C(=O)CC(C(O)C3CCSCC3)C2=O)c(C)c1 (stereo not drawn) [Compound T6] | > 80
Cc1cc(C)c(C2C(=O)CC(CCC3CCOCC3)C2=O)c(C)c1 (stereo not drawn) [Compound T21] | > 80
Cc1cc(C)c(C2C(=O)CC(C)(CC3CCOC3)C2=O)c(C)c1 (stereo not drawn) [Compound T30] | > 80
Cc1cc(C)c(C2C(=O)C/C(=C\C3CCN(C(=O)c4ccccc4)C3)C2=O)c(C)c1 (stereo not drawn) [Compound T34] | > 80
CC(=O)N1CCC(CC2CC(=O)C(c3c(C)cc(C)cc3C)C2=O)C1 (stereo not drawn) [Compound T35] | > 80
Cc1cc(C)c(C2C(=O)C/C(=C\C3CCOC(C)(C)C3)C2=O)c(C)c1 (stereo not drawn) [Compound T37] | > 80
Cc1cc(C)c(C2C(=O)CC(CC3COCCO3)C2=O)c(C)c1 (stereo not drawn) [Compound T40] | > 80
Cc1cc(C)c(C2C(=O)CC(CC3CCN(C(=O)c4ccccc4)C3)C2=O)c(C)c1 (stereo not drawn) [Compound T41] | > 80
COC(=O)N1CCC(CC2CC(=O)C(c3c(C)cc(C)cc3C)C2=O)C1 (stereo not drawn) [Compound T43] | > 80
CCC1CCC(CC2CC(=O)C(c3c(C)cc(C)cc3C)C2=O)O1 (stereo not drawn) [Compound T44] | > 80
Cc1cc(Br)cc(C)c1C1C(=O)C/C(=C\C2CCOCC2)C1=O (stereo not drawn) [Compound T45] | > 80
CC(=O)N1CCCCC1CC1CC(=O)C(c2c(C)cc(C)cc2C)C1=O (stereo not drawn) [Compound T48] | > 80
CCc1cc(C)cc(C)c1C1C(=O)CC(CC2CCOCC2)C1=O (stereo not drawn) [Compound T50] | > 80
Cc1cc(C)c(C2C(=O)CC(CC3CCN(C(=O)OC(C)(C)C)CC3)C2=O)c(C)c1 (stereo not drawn) [Compound T55] | > 80
CCc1cc(C)cc(C)c1C1C(=O)CC(CCC2CCOCC2)C1=O (stereo not drawn) [Compound T58] | > 80
Cc1cc(C)c(C2C(=O)CC(CC3CCN(c4ccc(Cl)cc4)CC3)C2=O)c(C)c1 (stereo not drawn) [Compound T60] | > 80
Cc1cc(-c2ccccc2)cc(C)c1C1C(=O)C/C(=C\C2CCOCC2)C1=O (stereo not drawn) [Compound T66] | > 80

SMILES | mortality at 400 ppm [%]
Cc1cc(-c2ccccc2)cc(C)c1C1C(=O)CC(CC2CCOCC2)C1=O (stereo not drawn) [Compound T67] | > 80
Cc1cc(C)c(C2C(=O)CC(CC3CCN(C(=O)c4ccccc4C)CC3)C2=O)c(C)c1 (stereo not drawn) [Compound T72] | > 80
CCS(=O)(=O)N1CCC(CC2CC(=O)C(c3c(C)cc(C)cc3C)C2=O)CC1 (stereo not drawn) [Compound T95] | > 80
COC(=O)N1CCC(CC2CC(=O)C(c3c(C)cc(C)cc3C)C2=O)CC1 (stereo not drawn) [Compound T98] | > 80
Cc1cc(C)c(C2C(=O)CC(CC3CCN(S(=O)(=O)C(F)(F)F)CC3)C2=O)c(C)c1 (stereo not drawn) [Compound T112] | > 80
Cc1cc(C)c(C2C(=O)CC(CC3C[C@@H]4O[C@H]3[C@@H]3C(=O)N(C)C(=O)[C@@H]34)C2=O)c(C)c1 (stereo partly drawn) [Compound T128] | > 80
Cc1cc(C)c(C2C(=O)CC(CC3OCCO3)C2=O)c(C)c1 (stereo not drawn) [Compound T130] | > 80
Cc1cc(C)c(C2C(=O)CC(CC3CCN(C(=O)C(F)(F)C(F)F)C3)C2=O)c(C)c1 (stereo not drawn) [Compound T131] | > 80
Cc1cc(-c2ccc(Cl)cc2F)cc(C)c1C1C(=O)C/C(=C\C2CCOCC2)C1=O (stereo not drawn) [Compound T132] | > 80
Cc1cc(-c2ccc(OC(F)(F)F)cc2)cc(C)c1C1C(=O)C/C(=C\C2CCOCC2)C1=O (stereo not drawn) [Compound T134] | > 80
Cc1cc(-c2ccc(Cl)cc2F)cc(C)c1C1C(=O)C/C(=C\C2CCOC2)C1=O (stereo not drawn) [Compound T135] | > 80
Cc1cc(-c2ccc(C(F)(F)F)cc2)cc(C)c1C1C(=O)CC(CC2CCOCC2)C1=O (stereo not drawn) [Compound T136] | > 80
Cc1cc(-c2ccc(OC(F)(F)F)cc2)cc(C)c1C1C(=O)CC(CC2CCOCC2)C1=O (stereo not drawn) [Compound T137] | > 80
Cc1cc(Br)cc(C)c1C1C(=O)CC(CC2CCOCC2)C1=O (stereo not drawn) [Compound T138] | > 80
Cc1cc(-c2ccccc2F)cc(C)c1C1C(=O)CC(CC2CCOCC2)C1=O (stereo not drawn) [Compound T139] | > 80
Cc1cc(-c2ccccc2F)cc(C)c1C1C(=O)CC(CC2CCOC2)C1=O (stereo not drawn) [Compound T140] | > 80
Cc1cc(C)c(C2C(=O)CC(CC3CCN(C(=O)C(C)C)C3)C2=O)c(C)c1 (stereo not drawn) [Compound T142] | > 80
Cc1cc(-c2ccc(F)cc2)cc(C)c1C1C(=O)CC(CC2CCOC2)C1=O (stereo not drawn) [Compound T158] | > 80
Cc1cc(C)c(C2C(=O)CC(CC3CCN(C(=O)C(F)(F)C(F)F)CC3)C2=O)c(C)c1 (stereo not drawn) [Compound T161] | > 80
Cc1cc(C)c(C2C(=O)CC(CC3CCN(C(=O)C(F)(F)F)C3)C2=O)c(C)c1 (stereo not drawn) [Compound T162] | > 80
Cc1cc(C)c(C2C(=O)CC(CC3CCN(C(=O)C(F)(F)F)CC3)C2=O)c(C)c1 (stereo not drawn) [Compound T163] | > 80
Cc1ccc(C)c(C2C(=O)CC(CC3CCOCC3)C2=O)c1 (stereo not drawn) [Compound T164] | > 80
Cc1cc(F)cc(C)c1C1C(=O)CC(CC2CCOCC2)C1=O (stereo not drawn) [Compound T170] | > 80
Cc1cc(F)cc(C)c1C1C(=O)CC(CC2CCOC2)C1=O (stereo not drawn) [Compound T171] | > 80
Cc1cc(C2CC2)cc(C)c1C1C(=O)CC(CC2CCOCC2)C1=O (stereo not drawn) [Compound T173] | > 80
Cc1ccc(C)c(C2C(=O)CC(CC3CCOC3)C2=O)c1 (stereo not drawn) [Compound T175] | > 80

same assay, conditions: foliar, 192 h, read-out: activity (egg, larval and adult mortality)

SMILES | mortality at 400 ppm [%]
Cc1cc(C)c(C2C(=O)CC(CC3CCN(C(=O)Oc4ccccc4)CC3)C2=O)c(C)c1 (stereo not drawn) [Compound T68] | > 80
